PMC6159918 (Peptides, 2018)
Read-outs that look alike come from different tables or passages of the source. Each block holds one molecule with its values, some of them ahead of it.

Experiments:
human BRS-3-receptor [1] = target: T1, human BRS-3-receptor (Homo sapiens, UniProt P32247); experiment: [3H]-inositol phosphates; format: cell-based; details: for decrease in [3H]IP-production stimulated by MK-5046 / inhibition of [3H]IP-production caused by peptide #1: Bantag-1 100 nM; for decrease in [3H]IP-production stimulated by MK-5046: MK-5046 10 nM; for inhibition of [3H]IP-production caused by peptide #1: peptide #1 10 nM
T1 sequence (P32247 1-399): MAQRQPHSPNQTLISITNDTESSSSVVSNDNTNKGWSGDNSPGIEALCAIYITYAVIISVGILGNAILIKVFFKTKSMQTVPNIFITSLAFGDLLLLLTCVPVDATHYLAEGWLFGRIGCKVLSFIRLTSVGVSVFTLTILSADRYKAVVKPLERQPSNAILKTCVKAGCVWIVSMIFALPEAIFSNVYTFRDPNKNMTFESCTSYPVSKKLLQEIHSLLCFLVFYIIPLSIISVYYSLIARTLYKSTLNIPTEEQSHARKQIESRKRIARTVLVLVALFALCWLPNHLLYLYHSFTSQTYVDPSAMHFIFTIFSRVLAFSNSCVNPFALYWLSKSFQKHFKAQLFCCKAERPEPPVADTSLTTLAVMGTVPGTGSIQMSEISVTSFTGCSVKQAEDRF

human BRS-3-receptor [2] = target: T1, human BRS-3-receptor; experiment: Cytosolic Ca2+; format: cell-based
GRPR = format: cell-based, human
NMBR [3] = target: NMBR (Homo sapiens, UniProt P28336); experiment: [3H]IP production, NMBR agonist/antagonist; format: cell-based; details: Peptide #1 (10 nM) + PD 1 μM; NCI-H727 (carcinoid); control 143 ± 21
Chain of NMBR (Homo sapiens, UniProt P28336) (P28336 whole entry): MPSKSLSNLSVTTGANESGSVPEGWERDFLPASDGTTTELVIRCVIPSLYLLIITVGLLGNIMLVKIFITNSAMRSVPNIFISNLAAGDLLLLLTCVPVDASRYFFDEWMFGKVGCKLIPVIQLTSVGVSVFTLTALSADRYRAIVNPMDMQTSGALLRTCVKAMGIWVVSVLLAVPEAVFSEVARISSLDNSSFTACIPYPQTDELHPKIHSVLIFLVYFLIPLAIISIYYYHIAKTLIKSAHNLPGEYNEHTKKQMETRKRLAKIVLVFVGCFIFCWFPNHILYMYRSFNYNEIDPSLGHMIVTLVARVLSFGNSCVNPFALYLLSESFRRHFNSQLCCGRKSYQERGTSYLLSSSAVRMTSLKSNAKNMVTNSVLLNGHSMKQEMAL

NMBR [4] = experiment: [3H]IP production, NMBR agonist/antagonist; format: cell-based, human

Molecule: Boc-Phe-His-4-amino-5-cyclohexyl-2, 4, 5-trideoxypentonyl-Leu- (3-dimethylamino)benzyl amide-N-methyl ammonium trifluoroacetate [Bantag-1]
decrease in [3H]IP-production stimulated by MK-5046 (human BRS-3-receptor [1]; BRS-3/Balb-cells): 93%
decrease in [3H]IP-production stimulated by MK-5046 (human BRS-3-receptor [1]; NCI-H69): 81%
decrease in [3H]IP-production stimulated by MK-5046 (human BRS-3-receptor [1]; NCI-H727): 75%
decrease in [3H]IP-production stimulated by MK-5046 (human BRS-3-receptor [1]; NCI-N417): 99%
inhibition of [3H]IP-production caused by peptide #1 (human BRS-3-receptor [1]; BRS-3/Balb-cells): 82%
inhibition of [3H]IP-production caused by peptide #1 (human BRS-3-receptor [1]; NCI-H69-cells): 83%
inhibition of [3H]IP-production caused by peptide #1 (human BRS-3-receptor [1]; NCI-N417-cells): 68%
[3H]IP (DPM) (human BRS-3-receptor [1]; MK-5046 10 nM + Bantag 100 nM, Balb-3T3 BRS-3 transfected, control 2487 ± 185): 3697 ± 1064 DPM
[3H]IP (DPM) (human BRS-3-receptor [1]; MK-5046 10 nM + Bantag 100 nM, NCI-H69 (SCLC), control 177 ± 27): 256 ± 56 DPM
[3H]IP (DPM) (human BRS-3-receptor [1]; MK-5046 10 nM + Bantag 100 nM, NCI-H727 (carcinoid), control 143 ± 21): 215 ± 25 DPM
[3H]IP (DPM) (human BRS-3-receptor [1]; MK-5046 10 nM + Bantag 100 nM, NCI-N417 (SCLC), control 660 ± 87): 678 ± 82 DPM
[3H]IP (DPM) (human BRS-3-receptor [1]; Peptide #1 (10 nM) + Bantag 100 nM, NCI-H69 (SCLC), control 177 ± 27): 265 ± 35 DPM
[3H]IP (DPM) (human BRS-3-receptor [1]; Peptide #1 (10 nM) + Bantag 100 nM, NCI-H727 (carcinoid), control 143 ± 21): 176 ± 27 DPM
[3H]IP (DPM) (human BRS-3-receptor [1]; Peptide #1 (10 nM) + Bantag 100 nM, NCI-N417 (SCLC), control 660 ± 87): 1125 ± 154 DPM
inhibition of MK-5046 stimulated increases in cytosolic calcium (human BRS-3-receptor [2]; Bantag-1 1000 nM, two cell lines (NCI-H727, H782)): completely inhibited
inhibition of MK-5046 stimulation of increases in (Ca2+)i (human BRS-3-receptor [2]; NCI-82, NCI-H460 and NCI-H727 cells): inhibited

Molecule: gastrin-releasing peptide [GRP]
[3H]IP (DPM) (GRPR; GRP 100 nM, Balb-3T3 BRS-3 transfected, control 2487 ± 185): 2519 ± 744 DPM
[3H]IP (DPM) (GRPR; GRP 100 nM, NCI-N417 (SCLC), control 660 ± 87): 881 ± 204 DPM
[3H]IP (DPM) (GRPR; GRP 1 μM, NCI-N417 (SCLC), control 660 ± 87): 724 ± 138 DPM
PLC activation in 4 cell-lines (NCI-H69, NCI-N417, NCI-H727, BRS-3/Balb) (GRPR; GRP at 10 nM and 100 nM): activated PLC only in NCI-H727-cells

Molecule: C[C@@](Cc1c[nH]c2ccccc12)(NC(=O)Nc1ccc([N+](=O)[O-])cc1)C(=O)NCC1(c2ccccn2)CCCCC1 [PD168368]
[3H]IP (DPM) (NMBR [3]): 157 ± 48 DPM
[3H]IP (DPM) (NMBR [4]; Peptide #1 (10 nM) + PD 1 μM, Balb-3T3 BRS-3 transfected, control 2487 ± 185): 15006 ± 769 DPM
[3H]IP (DPM) (NMBR [4]; Peptide #1 (10 nM) + PD 1 μM, NCI-H69 (SCLC), control 177 ± 27): 471 ± 121 DPM
[3H]IP (DPM) (NMBR [4]; Peptide #1 (10 nM) + PD 1 μM, NCI-N417 (SCLC), control 660 ± 87): 2176 ± 518 DPM

Molecule: [D-Phe^6]Bombesin-(6–13)-methyl ester
[3H]IP (DPM) (GRPR; Peptide #1 (10 nM) + ME 1 μM, Balb-3T3 BRS-3 transfected, control 2487 ± 185): 16107 ± 100 DPM
[3H]IP (DPM) (GRPR; Peptide #1 (10 nM) + ME 1 μM, NCI-N417 (SCLC), control 660 ± 87): 2513 ± 662 DPM

Molecule: neuromedin B [NMB]
[3H]IP (DPM) (NMBR [4]; NMB 100 nM, Balb-3T3 BRS-3 transfected, control 2487 ± 185): 2697 ± 720 DPM
[3H]IP (DPM) (NMBR [4]; NMB 100 nM, NCI-H69 (SCLC), control 177 ± 27): 186 ± 20 DPM
[3H]IP (DPM) (NMBR [4]; NMB 100 nM, NCI-N417 (SCLC), control 660 ± 87): 706 ± 132 DPM
[3H]IP (DPM) (NMBR [4]; NMB 1 μM, Balb-3T3 BRS-3 transfected, control 2487 ± 185): 2652 ± 838 DPM
[3H]IP (DPM) (NMBR [4]; NMB 1 μM, NCI-H69 (SCLC), control 177 ± 27): 187 ± 37 DPM
[3H]IP (DPM) (NMBR [4]; NMB 1 μM, NCI-N417 (SCLC), control 660 ± 87): 707 ± 137 DPM
PLC activation in 4 cell-lines (NCI-H69, NCI-N417, NCI-H727, BRS-3/Balb) (NMBR [4]; NMB at 10 nM and 100 nM): activated PLC only in NCI-H727-cells

[3H]IP (DPM) (human BRS-3-receptor [1]; Peptide #1 10 nM, Balb-3T3 BRS-3 transfected, control 2487 ± 185): 16341 ± 1071 DPM
[3H]IP (DPM) (human BRS-3-receptor [1]; Peptide #1 10 nM, NCI-H69 (SCLC), control 177 ± 27): 680 ± 73 DPM
[3H]IP (DPM) (human BRS-3-receptor [1]; Peptide #1 10 nM, NCI-N417 (SCLC), control 660 ± 87): 2131 ± 244 DPM
Molecule: [D-Tyr^6, β-Ala^11, Phe^13, Nle^14]Bn- (6–14) [Peptide #1]
[3H]IP (DPM) (human BRS-3-receptor [1]; Peptide #1 10 nM, NCI-H727 (carcinoid), control 143 ± 21): 235 ± 25 DPM
